pIC50: −log10 of the molar value.
Experiments:
[1] = tested on: MDA-MB-231 (breast) cancer cells; assay: MTT in vitro cytotoxic activity assay, MDA-MB-231; format: cell-based; conditions: Homo sapiens, cells exposed for 96 hours, 50% inhibition of cell proliferation, read-out: Cytotoxicity activity IC50, MDA-MB-231 (breast)
Experimental: (§1) Compounds 1-16 were screened for their in vitro cytotoxic activity utilizing a 3-(4,5-dimethyl-thiazol-2-yl)-2,5-diphenyltetrazolium bromide (MTT) assay against selected cancer human cell lines consisting of PC3 (prostate), HCT116 (colon), A375 (melanoma), H1299 (lung), MIAPaCa-2 (pancreas), HL60 (leukemia), MCF7 (breast), MDA-MB-231 (breast) (T. Mosmann, J. Immunol. Meth., 1983, 65, 55-63). The cells were cultured at 37° C. in RMPI1640 medium supplemented with 10% fetal bovine serum, 50 IU/mL penicillin, and 50 μg/mL streptomycin in a 5% CO2 incubator. All cells were sub-cultured 3 times/week by trypsinisation. Viable cells were seeded and allowed to adhere for 12 hours before a test drug was added in 96-well plates at an initial density of 1.0×10^5 cells/mL. Tumor cell lines were separately exposed to various concentrations of the tested compounds followed by incubation at a temperature of 37° C. during 96 hours inside a medium of fresh RMPI 1640. Cells were subsequently incubated at 37° C. using MTT at 0.5 mg/mL during 4 hours. After removal of supernatant, formazan crystals were dissolved in isopropanol and the optical density was measured at 570 nm. CX-4945 was used as a positive control.

[2] = molecular target: T1, recombinant human CK2 (RRββ-holoenzyme) (Homo sapiens, UniProt P68400); assay: CK2 Kinase Assay (33P-ATP, filter plate); format: biochemical; conditions: final ATP concentration 15 μM; 10 min at 30° C.; read-out: protein kinase CK2 IC50
T1 construct: purchased Millipore
T1 sequence (P68400 whole entry): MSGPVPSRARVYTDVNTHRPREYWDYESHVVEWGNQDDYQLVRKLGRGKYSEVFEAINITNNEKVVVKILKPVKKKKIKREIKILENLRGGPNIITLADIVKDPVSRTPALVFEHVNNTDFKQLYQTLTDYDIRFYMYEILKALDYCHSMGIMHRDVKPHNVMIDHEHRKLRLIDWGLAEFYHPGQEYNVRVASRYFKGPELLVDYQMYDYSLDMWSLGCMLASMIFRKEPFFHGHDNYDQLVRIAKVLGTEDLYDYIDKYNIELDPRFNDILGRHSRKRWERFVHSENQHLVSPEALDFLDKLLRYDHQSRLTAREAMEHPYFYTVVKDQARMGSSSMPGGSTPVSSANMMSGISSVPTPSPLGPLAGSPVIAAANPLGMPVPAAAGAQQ
T1 sequence (P67870 whole entry partner): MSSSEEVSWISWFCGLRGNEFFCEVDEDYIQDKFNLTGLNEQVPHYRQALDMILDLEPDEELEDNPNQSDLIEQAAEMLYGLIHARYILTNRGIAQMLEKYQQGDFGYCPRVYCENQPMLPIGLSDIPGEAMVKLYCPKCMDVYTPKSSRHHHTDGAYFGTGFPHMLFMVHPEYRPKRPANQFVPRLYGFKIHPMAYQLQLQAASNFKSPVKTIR
Experimental: CK2 Kinase Assay was conducted using the protocol as described in Pierre F. et al; J. Med. Chem. 2011, 54, 635-654. The tested compounds in aqueous solution were added at a volume of 10 μL to a reaction mixture comprising 10 μL of assay dilution buffer (ADB; 20 mM MOPS, pH 7.2, 25 mM β-glycerol phosphate, 5 mM EGTA, 1 mM sodium orthovanadate, and 1 mM dithiothreitol), 10 μL of substrate peptide (RRRDDDSDDD, dissolved in ADB at a concentration of 1 mM), 10 μL of recombinant human CK2 (RRββ-holoenzyme, 25 ng dissolved in ADB; Millipore). Reactions were initiated by the addition of 10 μL of ATP solution (90% 75 mMMgCl2, 75 μM ATP (final ATP concentration: 15 μM) dissolved in ADB; 10% [γ-33P] ATP (stock 1mCi/100 μL; 3000 Ci/mmol (Perkin-Elmer) and maintained for 10 min at 30° C. The reactions were quenched with 100 μL of 0.75% phosphoric acid and then transferred to and filtered through a phosphor cellulose filter plate (Millipore). After washing each well five times with 0.75% phosphoric acid, the plate was dried under vacuum for 5 min and, following the addition of 15 μL of scintillation fluid to each well, the residual radioactivity was measured using a Wallac luminescence counter. The IC50 values were derived from eight concentrations of test inhibitors.

[3] = tested on: MCF7 (breast) cancer cells; assay: MTT in vitro cytotoxic activity assay, MCF7; format: cell-based; conditions: Homo sapiens, cells exposed for 96 hours, 50% inhibition of cell proliferation, read-out: Cytotoxicity activity IC50, MCF7 (breast)
Experimental: as §1

[4] = tested on: HCT116 (colon) cancer cells; assay: MTT in vitro cytotoxic activity assay, HCT116; format: cell-based; conditions: Homo sapiens, HCT-116; cells exposed for 96 hours; 50% inhibition of cell proliferation; read-out: Cytotoxicity activity IC50, HCT116 (colon)
Experimental: as §1

[5] = tested on: HL60 (leukemia) cancer cells; assay: MTT in vitro cytotoxic activity assay, HL60; format: cell-based; conditions: Homo sapiens, HL-60; cells exposed for 96 hours; 50% inhibition of cell proliferation; read-out: Cytotoxicity activity IC50, HL60 (leukemia)
Experimental: as §1

[6] = tested on: MIAPaCa-2 (pancreas) cancer cells; assay: MTT in vitro cytotoxic activity assay, MIAPaCa-2; format: cell-based; conditions: Homo sapiens, MIA PaCa-2; cells exposed for 96 hours; 50% inhibition of cell proliferation; read-out: Cytotoxicity activity IC50, MIAPaCa-2 (pancreas)
Experimental: as §1

[7] = tested on: H1299 (lung) cancer cells; assay: MTT in vitro cytotoxic activity assay, H1299; format: cell-based; conditions: Homo sapiens, NCI-H1299; cells exposed for 96 hours; 50% inhibition of cell proliferation; read-out: Cytotoxicity activity IC50, H1299 (lung)
Experimental: as §1

[8] = tested on: PC3 (prostate) cancer cells; assay: MTT in vitro cytotoxic activity assay, PC3; format: cell-based; conditions: Homo sapiens; cells exposed for 96 hours; 50% inhibition of cell proliferation; read-out: Cytotoxicity activity IC50, PC3 (prostate)
Experimental: as §1

[9] = tested on: A375 (melanoma) cancer cells; assay: MTT in vitro cytotoxic activity assay, A375; format: cell-based; conditions: Homo sapiens, A-375; cells exposed for 96 hours; 50% inhibition of cell proliferation; read-out: Cytotoxicity activity IC50, A375 (melanoma)
Experimental: as §1

In the case of `O=C(O)c1ncn2c1c(Nc1cccc(Cl)c1)nc1ccncc12` [Compound 1, 4-((3-chlorophenyl)amino) imidazo[1,5-a]pyrido[4,3-e]pyrazine-3-carboxylic acid], the pIC50 [1] was 5.28, the pIC50 [2] was 7.44 and the pIC50 [3] was 5.23. It also gave a pIC50 [4] of 5.74, a pIC50 [5] of 5.59 and a pIC50 [6] of 5.96. It also gave a pIC50 [7] of 5.60, a pIC50 [8] of 5.68 and a pIC50 [9] of 5.48.
